For 8 compounds, IC50, inhibition and Activity results are on record in ChEMBL document CHEMBL4020799, “Design, synthesis of novel furan appended benzothiazepine derivatives and in vitro biological evaluation as potent VRV-PL-8a and H+/K+ ATPase inhibitors” (Bioorg Med Chem Lett, 2017).

For assay [1], the target named is T1, Basic phospholipase A2 VRV-PL-VIIIa (Daboia russelii, UniProt P59071).
T1 sequence (P59071 whole entry): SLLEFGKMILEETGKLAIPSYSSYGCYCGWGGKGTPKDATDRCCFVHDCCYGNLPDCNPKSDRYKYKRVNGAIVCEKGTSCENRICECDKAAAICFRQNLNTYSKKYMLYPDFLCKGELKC
The experiment in a line: (§1) Inhibition of Vipera russelii sPLA2 pre-incubated for 5 mins before DMPC substrate addition and measured after 45 mins.

Assay [2] deals with T2, Basic phospholipase A2 VRV-PL-VIIIa (Daboia russelii) (UniProt P59071).
T2 sequence (whole entry): T1 sequence (P59071 whole entry)
The description is as §1.

Assay [3] is described as follows: Inhibition of hydrogen potassium ATPase in pig stomach mucosal membrane assessed as reduction in liberated inorganic phosphate level after 15 mins by colorimetric method. The assay is classed as cell membranes, Sus scrofa.
In assay [4] the target is T2, Basic phospholipase A2 VRV-PL-VIIIa (Daboia russelii). Nature of the assay: Inhibition of Vipera russelii venom sPLA2 assessed as remaining enzyme activity level at 11.01 uM in presence of fixed concentration of calcium and 400 uM of DMPC substrate measured after 5 mins.
Assay [5] has the same target. Nature of the assay: Inhibition of Vipera russelii venom sPLA2 at 11.01 uM in presence of fixed concentrations of DMPC substrate and 0 to 12 uM of calcium measured after 5 mins.
Assay [6] shares this target. The experiment in a line: Inhibition of Vipera russelii venom sPLA2 at 11.01 uM in presence of fixed concentration of calcium and 0 to 400 uM of DMPC substrate measured after 5 mins.
Assay [7] shares this target. Nature of the assay: Inhibition of Vipera russelii venom sPLA2-induced hemolytic activity in human erythrocytes assessed as reduction hemoglobin release in presence of egg yolk preincubated for 5 mins followed by erythrocyte addition by spectrophotometric analysis. The assay is classed as cell-based.

Active and inactive are the calls of the source. The rule behind the calls is not given here.

Turning to `Clc1ccc(C2CC(c3ccco3)=Nc3ccccc3S2)cc1` (stereo not drawn), the 50% inhibitory concentration (IC50) in assay [1] came to 19.3 µM; in assay [3] it was 5.28 µM. In assay [2], the inhibition entry is “Dose-dependent effect”.
Regarding `c1ccc(C2CC(c3ccco3)=Nc3ccccc3S2)cc1` (stereo not drawn), the results for the half-maximal inhibitory concentration (IC50) in assay [1] and in assay [3] were 12 µM and 8.01 µM, respectively. Further, in assay [2], the inhibition result was “Dose-dependent effect”.
On the same counts, the results for `Fc1ccc(C2CC(c3ccco3)=Nc3ccccc3S2)cc1` (stereo not drawn) are 25.2 µM, 5.1 µM and “Dose-dependent effect”.
Consider `O=[N+]([O-])c1ccc(C2CC(c3ccco3)=Nc3ccccc3S2)cc1` (stereo not drawn), for which the IC50 in assay [1] was 56.9 µM; in assay [3], 3.73 µM. In addition, the inhibition result in assay [2] was “Dose-dependent effect”.
`Brc1ccc(C2CC(c3ccco3)=Nc3ccccc3S2)cc1` (stereo not drawn): the IC50 in assay [1] was determined as 24.1 µM; in assay [3], 2.11 µM. The inhibition entry in assay [2] is “Dose-dependent effect”.
In the case of `COc1ccc(C2CC(c3ccco3)=Nc3ccccc3S2)cc1` (stereo not drawn), the Activity in assay [4] was 51%. Further, the inhibition entry in assay [5] and in assay [6] was “Active” each time. In addition, the IC50 in assay [1] came to 11 µM; in assay [3], 1.99 µM. Moreover, the inhibition entry in assay [2] and in assay [7] was “Dose-dependent effect” in each case.
Regarding `c1coc(C2=Nc3ccccc3SC(c3ccc4c(c3)OCO4)C2)c1` (stereo not drawn), the figures for the IC50 in assay [1] and in assay [3] were 25.1 µM and 5.14 µM, respectively. Further, the inhibition result in assay [2] is “Dose-dependent effect”.
In the same order, the values of `COc1cc(C2CC(c3ccco3)=Nc3ccccc3S2)ccc1O` (stereo not drawn) are 43.4 µM, 4.39 µM and “Dose-dependent effect”.
